Tests used:
Format in all cases: biochemical
Sulf-2 = biological target: T1, Sulf-2 (Homo sapiens, UniProt Q8IWU5); test: Inhibition of Sulf-2-catalysed desulfation of 4-MUS to fluorescent MU; conditions: for inhibition at 1000 µM: 1 mM compound, 4-MUS substrate, means of two or more determinations, read-out: Sulf-2% inh @ 1 mM; for IC50: non-linear regression, 7 inhibitor concentrations in duplicate, mean ± SEM
T1 construct: host or cells: 293T cells, transiently transfected
Procedure: (§1) Compounds were assayed for their ability to inhibit the Sulf-2-catalysed desulfation of 4-methylumbelliferyl sulfate (4-MUS) to the fluorescent 4-methylumbelliferone (MU). To determine their sulfatase selectivity, inhibition of aryl sulfatases A (ARSA) and B (ARSB) was also assessed. To date no suitable benchmark inhibitors of these sulfatase have been reported. […] In the majority of cases the presence of a substituent on the B-ring was detrimental to Sulf-2 inhibition when compared with unsubstituted biphenyl sulfamate 76. Aminosulfates 54 and 62 and carboxylic acid 15 retained potency. […] Compounds 8, 10, 15, 50 and 51 were also relatively potent ARSA inhibitors. […] Aminosulfates 56 and 63 were the best Sulf-2 inhibitors lacking a trichloroethylsulfamate group.
1 – Biological assay protocols
Compounds were screened using 4-MUS as a substrate for Sulf-2 according to a protocol described by Morimoto-Tomita et al.1 Briefly 293T cells were transiently transfected with pcDNA3.1/Myc-His(-)-HSulf-2 DNA (Addgene) and TransIT-LT1 Transfection Reagent (Mirus) using a transfection mixture at the ratio 1:3 (µg DNA:
µL transfection reagent) in Opti-MEM I reduced serum medium (Gibco). Conditioned medium containing Sulf-2 was collected after 3 days and bound to HIS-Select Nickel affinity gel (Sigma) overnight at 4 °C. Beads were washed three times with washing buffer containing 50 mM HEPES (pH 7.5), 300 mM NaCl, 0.05% Tween 20, followed by washing once with washing buffer containing no tween. Beads were suspended in 50 mM Hepes (pH 7.5) and used in inhibition assays. 20 μL of bead slurry was incubated with 1 mM compound (in DMSO) plus 10X reaction buffer (500 mM HEPES pH 7.5, 100 mM CaCl2) for 1 h at 37 °C. The reaction was started by the addition of 20 μL of 20 mM 4-MUS (final concentration of 8 mM) and incubated at 37 °C for 1 h. The reaction was stopped with 100 μL 1 M Tris buffer (pH 10.4) and read at 460 nm following excitation at 355 nm in FLUOstar Omega plate reader (BMG Labtech) using Omega data analysis software. […]

aryl sulfatase A (ARSA) = biological target: T2, aryl sulfatase A (ARSA) (Homo sapiens, UniProt P15289); test: ARSA inhibition assay with 4-MUS substrate; conditions: for inhibition at 1000 µM: 1 mM compound, 4-MUS substrate, means of two or more determinations, read-out: ARSA% inh @ 1 mM
T2 construct: purchased R & D Systems
T2 sequence (P15289 19-507): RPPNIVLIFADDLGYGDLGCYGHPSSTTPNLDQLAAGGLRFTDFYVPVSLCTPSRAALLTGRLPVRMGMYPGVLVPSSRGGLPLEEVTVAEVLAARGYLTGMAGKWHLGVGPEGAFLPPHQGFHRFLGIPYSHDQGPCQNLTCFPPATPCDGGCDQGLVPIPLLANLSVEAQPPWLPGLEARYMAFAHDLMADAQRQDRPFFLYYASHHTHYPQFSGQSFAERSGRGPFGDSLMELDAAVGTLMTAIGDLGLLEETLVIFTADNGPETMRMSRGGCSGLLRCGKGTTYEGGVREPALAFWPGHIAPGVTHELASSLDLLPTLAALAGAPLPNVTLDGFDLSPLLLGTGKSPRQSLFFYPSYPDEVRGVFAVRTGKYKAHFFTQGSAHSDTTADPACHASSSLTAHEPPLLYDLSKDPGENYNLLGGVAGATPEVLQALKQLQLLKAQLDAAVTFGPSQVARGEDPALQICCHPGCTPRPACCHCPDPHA
Procedure: as §1
(§2) 1 – Biological assay protocols […]
(§3) Omega data analysis software.
(§4) ARSA and ARSB assay protocols
(§5) Compounds were screened in a 96-well black plate (Sterilin) using 4-MUS as a substrate, using 50 μL reaction mixture containing 40 ng of the commercially available enzymes (ARSA or ARSB from R & D Systems), 50 mM HEPES (pH = 4.5), 10 mM CaCl2, 1 mM test compound (dissolved in DMSO; final concentration of DMSO in reaction = 2%), and H2O (45 μL). The assay mixture was incubated for 1 h at 37 °C, followed by addition of 5 μL of 4-MUS (Km = 1.6 mM for ARSA and 612 μM for ARSB), and incubation for a further 1 h at 37 °C. The reaction was stopped with 100 μL of 1 M Tris (pH = 10.5) and read at 460 nm following excitation at 355 nm in FLUOstar Omega plate reader (BMG Labtech) using Omega data analysis software.

aryl sulfatase B (ARSB) = biological target: T3, aryl sulfatase B (ARSB) (Homo sapiens, UniProt P15848); test: ARSB inhibition assay with 4-MUS substrate; conditions: for inhibition at 1000 µM: 1 mM compound, 4-MUS substrate, means of two or more determinations, read-out: ARSB% inh @ 1 mM; for IC50: non-linear regression, 7 inhibitor concentrations in duplicate, mean ± SEM
T3 construct: purchased R & D Systems
T3 sequence (P15848 37-533, species assumed): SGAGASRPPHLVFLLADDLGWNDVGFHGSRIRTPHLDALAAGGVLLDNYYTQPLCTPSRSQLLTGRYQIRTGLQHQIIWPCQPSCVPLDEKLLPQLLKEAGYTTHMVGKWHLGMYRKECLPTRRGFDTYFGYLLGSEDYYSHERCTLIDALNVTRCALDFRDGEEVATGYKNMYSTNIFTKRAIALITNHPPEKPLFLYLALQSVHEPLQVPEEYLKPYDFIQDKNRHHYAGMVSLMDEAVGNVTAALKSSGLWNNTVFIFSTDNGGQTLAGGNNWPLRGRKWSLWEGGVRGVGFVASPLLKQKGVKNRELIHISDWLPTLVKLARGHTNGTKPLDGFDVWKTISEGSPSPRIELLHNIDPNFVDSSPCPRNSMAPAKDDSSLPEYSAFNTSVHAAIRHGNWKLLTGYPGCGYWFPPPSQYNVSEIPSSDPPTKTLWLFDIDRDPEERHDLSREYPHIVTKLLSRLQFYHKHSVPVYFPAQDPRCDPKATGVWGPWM
Procedure: as §1, §2, §3, §4, §5

T1 sequence (Q8IWU5 25-870): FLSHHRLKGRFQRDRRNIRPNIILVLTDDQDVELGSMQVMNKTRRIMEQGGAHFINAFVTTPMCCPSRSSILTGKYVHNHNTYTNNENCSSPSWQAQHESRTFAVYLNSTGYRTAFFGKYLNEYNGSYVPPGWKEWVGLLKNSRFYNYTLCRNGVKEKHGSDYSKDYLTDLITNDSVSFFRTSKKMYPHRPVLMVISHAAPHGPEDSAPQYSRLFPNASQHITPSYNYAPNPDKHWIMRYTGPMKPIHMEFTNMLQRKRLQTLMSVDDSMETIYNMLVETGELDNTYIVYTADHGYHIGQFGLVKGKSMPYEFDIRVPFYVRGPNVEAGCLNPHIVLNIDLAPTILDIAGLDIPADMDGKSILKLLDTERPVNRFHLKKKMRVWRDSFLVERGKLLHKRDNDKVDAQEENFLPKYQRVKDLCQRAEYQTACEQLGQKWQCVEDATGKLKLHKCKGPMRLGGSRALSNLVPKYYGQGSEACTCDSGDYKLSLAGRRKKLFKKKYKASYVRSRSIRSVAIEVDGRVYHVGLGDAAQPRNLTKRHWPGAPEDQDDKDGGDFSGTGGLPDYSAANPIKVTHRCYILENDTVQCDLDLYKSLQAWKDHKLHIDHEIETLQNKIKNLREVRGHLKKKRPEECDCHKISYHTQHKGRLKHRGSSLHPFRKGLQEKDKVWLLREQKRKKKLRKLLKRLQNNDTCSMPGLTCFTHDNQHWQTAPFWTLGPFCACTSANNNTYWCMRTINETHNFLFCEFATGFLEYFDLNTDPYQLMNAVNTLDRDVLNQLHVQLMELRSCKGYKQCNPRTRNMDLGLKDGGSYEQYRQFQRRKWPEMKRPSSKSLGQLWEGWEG

inhibition at 1000 µM (Sulf-2) [%] | inhibition at 1000 µM (aryl sulfatase A (ARSA)) [%] | inhibition at 1000 µM (aryl sulfatase B (ARSB)) [%] | IC50 (Sulf-2) [µM] | IC50 (aryl sulfatase B (ARSB)) [µM] | IC50 (aryl sulfatase A (ARSA); non-linear regression, 7 inhibitor concentrations in duplicate, mean ± SEM) [µM] | Structure (SMILES) | ARSA inhibition over concentration range (aryl sulfatase A (ARSA); concentration range 0.025–1 mM, IC50 could not be determined)
10 | 57 | 0 |  |  |  | CC(=O)Nc1cccc(Oc2cccc(OS(N)(=O)=O)c2)c1 [Compound 38] | 
8 | 52 | 33 |  |  |  | CC(=O)Nc1cccc(-c2cccc(OS(N)(=O)=O)c2)c1 [Compound 35] | 
12 | 59 | 0 |  |  |  | NS(=O)(=O)Oc1cccc(-c2cccc(C(=O)O)c2)c1 [Compound 9] | 
4 | 33 | 0 |  |  |  | CC(=O)Nc1ccccc1-c1cccc(OS(N)(=O)=O)c1 [Compound 34] | 
14 | 45 | 0 |  |  |  | CC(=O)Nc1ccc(Oc2cccc(OS(N)(=O)=O)c2)cc1 [Compound 39] | 
22 | 85 | 0 |  |  |  | NS(=O)(=O)Oc1cccc(-c2ccc(C(=O)O)cc2)c1 [Compound 10] | 
21 | 0 | 0 |  |  |  | Nc1ccccc1-c1cccc(OS(N)(=O)=O)c1 [Compound 11] | 
20 | 0 | 0 |  |  |  | Nc1cccc(-c2cccc(OS(N)(=O)=O)c2)c1 [Compound 12] | 
11 | 29 | 48 |  |  |  | CC(=O)Nc1ccccc1Oc1cccc(OS(N)(=O)=O)c1 [Compound 37] | 

Second part, the compound before the results:

Structure (SMILES) | inhibition at 1000 µM (Sulf-2) [%] | inhibition at 1000 µM (aryl sulfatase A (ARSA)) [%] | inhibition at 1000 µM (aryl sulfatase B (ARSB)) [%] | IC50 (Sulf-2) [µM] | IC50 (aryl sulfatase B (ARSB)) [µM] | IC50 (aryl sulfatase A (ARSA); non-linear regression, 7 inhibitor concentrations in duplicate, mean ± SEM) [µM] | ARSA inhibition over concentration range (aryl sulfatase A (ARSA); concentration range 0.025–1 mM, IC50 could not be determined)
Nc1ccc(Oc2cccc(OS(N)(=O)=O)c2)cc1 [Compound 27] | 14 | 75 | 0 |  |  |  | 
O=S(=O)(OCC(Cl)(Cl)Cl)Oc1cccc(-c2ccccc2)c1 [Compound 81] | 1 | 70 | 85 |  |  |  | 
O=S(=O)(Nc1cccc(Oc2ccccc2)c1)OCC(Cl)(Cl)Cl [Compound 80] | 99 | 74 | 99 | 298 ± 3 | 34 ± 9 |  | Concentration-dependent inhibition was not observed
Nc1ccc(-c2cccc(OS(N)(=O)=O)c2)cc1 [Compound 13] | 6 | 61 | 0 |  |  |  | 
Nc1cccc(Oc2cccc(OS(N)(=O)=O)c2)c1 [Compound 26] | 31 | 75 | 0 |  |  |  | 
NS(=O)(=O)Oc1cccc(Oc2cccc(NS(=O)(=O)OCC(Cl)(Cl)Cl)c2)c1 [Compound 52] | 100 | 100 | 96 |  |  |  | 
NS(=O)(=O)Oc1cccc(Oc2ccccc2N(S(=O)(=O)OCC(Cl)(Cl)Cl)S(=O)(=O)OCC(Cl)(Cl)Cl)c1 [Compound 61] | 18 | 82 | 40 |  |  |  | 
NS(=O)(=O)Oc1cccc(Oc2ccc(NS(=O)(=O)OCC(Cl)(Cl)Cl)cc2)c1 [Compound 53] | 98 | 96 | 86 | 390 ± 11 | 116 ± 10 | 108 ± 2 | 
NS(=O)(=O)Oc1cccc(Oc2cccc(C(=O)O)c2)c1 [Compound 74] | 30 | 49 | 0 |  |  |  | 
O=S(=O)(Nc1ccccc1)OCC(Cl)(Cl)Cl [Compound 83] | 3 | 63 | 68 |  |  |  | 
NS(=O)(=O)Oc1cccc(Oc2ccccc2)c1 [Compound 78] | 32 |  |  |  |  |  | 
NS(=O)(=O)Oc1cccc(-c2ccccc2N(S(=O)(=O)OCC(Cl)(Cl)Cl)S(=O)(=O)OCC(Cl)(Cl)Cl)c1 [Compound 60] | 10 | 63 | 0 |  |  |  | 
CN(C)S(=O)(=O)Oc1cccc(-c2ccccc2)c1 [Compound 77] | 0 |  |  |  |  |  | 

Source: paper PMC5477036, “Design and synthesis of biphenyl and biphenyl ether inhibitors of sulfatases” (Chemical Science, 2016)
